This is an account of results in US8198273B2, “Compounds and methods for kinase modulation, and indications therefor” (Plexxikon Inc., priority 2009, dated 2012).

The subject of data set [1] is SW620 colon adenocarcinoma cells (wild-type B-RAF). In words: SW620 cell growth inhibition (ATPlite). It is filed as cell-based. The settings on record: Homo sapiens, SW-620, 72 h; SW620, 3 days incubation. In short, it runs like this:
(§1)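 Cells plated overnight, then exposed 3 days at 37° C to 8-point 1:3 compound dilutions topping at 10 μM final. Viability read as ATPlite luminescence, proportional to cell number; IC50 from luminescence versus concentration.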
In general terms: In ATP-based viability assays light output follows the ATP content of the culture.

In data set [2] the test system is COLO205 colon adenocarcinoma cells (B-Raf V600E). In words: COLO205 cell growth inhibition (ATPlite). It is filed as cell-based. The conditions noted are these: Homo sapiens, COLO 205, 72 h; COLO205, 3 days incubation. In short, it runs like this: as §1
For data set [3], the system named is SKMEL2 melanoma cells (Ras mutation). In words: SKMEL2 cell growth inhibition (ATPlite). The settings on record: Homo sapiens, SK-MEL-2, 72 h; SKMEL2, 3 days incubation. It is filed as cell-based. In short, it runs like this:
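SKMEL2 cells seeded at 2,000 per well overnight, then exposed to an 8-point 1:3 compound titration (top 10 μM final) for 3 days at 37 °C. ATPlite luminescence used as a measure of cell number to derive IC50.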

The target in data set [4] is T1, CYP1A2 (Homo sapiens, UniProt P05177).
T1 sequence (P05177 1-516): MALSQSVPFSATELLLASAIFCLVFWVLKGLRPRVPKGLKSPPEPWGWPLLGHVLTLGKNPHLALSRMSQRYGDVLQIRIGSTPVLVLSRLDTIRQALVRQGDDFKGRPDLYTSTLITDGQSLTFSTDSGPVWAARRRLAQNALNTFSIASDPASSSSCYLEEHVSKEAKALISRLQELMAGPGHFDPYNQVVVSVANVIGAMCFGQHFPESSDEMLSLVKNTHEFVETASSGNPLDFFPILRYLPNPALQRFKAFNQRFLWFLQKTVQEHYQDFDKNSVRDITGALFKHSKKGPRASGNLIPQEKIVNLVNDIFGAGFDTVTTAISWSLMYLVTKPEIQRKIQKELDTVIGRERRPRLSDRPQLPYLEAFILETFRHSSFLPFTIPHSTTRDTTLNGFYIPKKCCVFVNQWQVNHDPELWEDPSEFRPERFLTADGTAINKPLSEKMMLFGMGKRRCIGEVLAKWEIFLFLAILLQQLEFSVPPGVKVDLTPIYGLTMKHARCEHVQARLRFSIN
The data set can be described thus: CYP1A2 inhibition (fluorescent substrate). It is filed as in vitro ADME. The conditions noted are these: CYP1A2, CEC substrate; read-out: Cyp IC50 1A2. A digest of the protocol:
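Human CYP activity was followed by the fluorescence of the metabolized product of a known substrate, which falls as metabolism is inhibited. Compounds from 100 mM DMSO stocks were serially diluted 1:1 over 10 points in co-factor mix and preincubated 10 min at 37 °C. IC50 was fitted from signal versus concentration.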

Molecules are shown by their SMILES.

Turning to `Cc1cnc2[nH]cc(C(=O)c3c(F)ccc(NS(=O)(=O)c4ccccc4F)c3F)c2c1` [P-2014, N-[2,4-Difluoro-3-(5-methyl-1H-pyrrolo[2,3-b]pyridine-3-carbonyl)-phenyl]-2-fluoro-benzenesulfonamide], the IC50 (usually the concentration that inhibits the measured activity by half) was above 10 µM in data set [1], below 5 µM in data set [2], above 10 µM in data set [3] and above 10 µM in data set [4].

For `Cc1cnc2[nH]cc(C(=O)c3c(F)ccc(NS(=O)(=O)c4cc(F)ccc4F)c3F)c2c1` [P-2015, N-[2,4-Difluoro-3-(5-methyl-1H-pyrrolo[2,3-b]pyridine-3-carbonyl)-phenyl]-2,5-difluoro-benzenesulfonamide], the IC50 in data set [1] was above 10 µM; in data set [2], below 1 µM; in data set [3], above 10 µM; in data set [4] it was above 10 µM.

Turning to `Cc1cnc2[nH]cc(C(=O)c3c(F)ccc(NS(=O)(=O)c4cccc(F)c4)c3F)c2c1` [P-2016, N-[2,4-Difluoro-3-(5-methyl-1H-pyrrolo[2,3-b]pyridine-3-carbonyl)-phenyl]-3-fluoro-benzenesulfonamide], the half-inhibitory concentration (IC50) was above 10 µM in data set [1], below 5 µM in data set [2], above 10 µM in data set [3] and above 10 µM in data set [4].

Regarding `O=C(c1c(F)ccc(NS(=O)(=O)c2ccccc2F)c1F)c1c[nH]c2nccc(Cl)c12` [P-2017, N-[3-(4-Chloro-1H-pyrrolo[2,3-b]pyridine-3-carbonyl)-2,4-difluoro-phenyl]-2-fluoro-benzenesulfonamide], the IC50 in data set [1] was above 10 µM; in data set [2], below 5 µM; in data set [3], above 10 µM; in data set [4] it was above 10 µM.

Turning to `O=C(c1c(F)ccc(NS(=O)(=O)c2cc(F)ccc2F)c1F)c1c[nH]c2nccc(Cl)c12` [P-2018, N-[3-(4-Chloro-1H-pyrrolo[2,3-b]pyridine-3-carbonyl)-2,4-difluoro-phenyl]-2,5-difluoro-benzenesulfonamide], the IC50 was above 10 µM in data set [1], below 5 µM in data set [2], above 10 µM in data set [3] and above 10 µM in data set [4].

For the compound `O=C(c1c(F)ccc(NS(=O)(=O)c2cccc(F)c2)c1F)c1c[nH]c2nccc(Cl)c12` [P-2019, N-[3-(4-Chloro-1H-pyrrolo[2,3-b]pyridine-3-carbonyl)-2,4-difluoro-phenyl]-3-fluoro-benzenesulfonamide], the IC50 in data set [1] is above 10 µM; in data set [2], below 5 µM; in data set [3] it was above 10 µM; in data set [4], above 10 µM.

For `COc1ccnc2[nH]cc(C(=O)c3c(F)ccc(NS(=O)(=O)c4cc(F)ccc4F)c3F)c12` [P-2022, N-[2,4-Difluoro-3-(4-methoxy-1H-pyrrolo[2,3-b]pyridine-3-carbonyl)-phenyl]-2,5-difluoro-benzenesulfonamide], the IC50 in data set [1] is above 10 µM; in data set [2], below 5 µM; in data set [3], above 10 µM; in data set [4] it was above 10 µM.

In the case of `N#Cc1cnc2[nH]cc(C(=O)c3c(F)ccc(NS(=O)(=O)c4c(F)cccc4F)c3F)c2c1` [P-2029, N-[3-(5-Cyano-1H-pyrrolo[2,3-b]pyridine-3-carbonyl)-2,4-difluoro-phenyl]-2,6-difluoro-benzenesulfonamide], the 50% inhibitory concentration (IC50) is above 10 µM in data set [1], below 5 µM in data set [2], above 10 µM in data set [3] and above 10 µM in data set [4].

For `COc1ccnc2[nH]cc(C(=O)c3c(F)ccc(NS(=O)(=O)c4c(F)cccc4F)c3F)c12` [P-2031, N-[2,4-Difluoro-3-(4-methoxy-1H-pyrrolo[2,3-b]pyridine-3-carbonyl)-phenyl]-2,6-difluoro-benzenesulfonamide], the IC50 in data set [1] was above 10 µM; in data set [2], below 5 µM; in data set [3], above 10 µM; in data set [4], above 10 µM.

`O=C(c1c(F)ccc(NS(=O)(=O)c2c(F)cccc2F)c1F)c1c[nH]c2nccc(Cl)c12` [P-2033, N-[3-(4-Chloro-1H-pyrrolo[2,3-b]pyridine-3-carbonyl)-2,4-difluoro-phenyl]-2,6-difluoro-benzenesulfonamide]: the IC50 in data set [1] is above 10 µM; in data set [2], below 10 µM; in data set [3], above 10 µM; in data set [4] it was above 10 µM.

Take `N#Cc1ccnc2[nH]cc(C(=O)c3c(F)ccc(NS(=O)(=O)c4cc(F)ccc4F)c3F)c12` [P-2036, N-[3-(4-Cyano-1H-pyrrolo[2,3-b]pyridine-3-carbonyl)-2,4-difluoro-phenyl]-2,5-difluoro-benzenesulfonamide]: the IC50 in data set [1] is above 10 µM; in data set [2] it was below 1 µM; in data set [3], above 10 µM; in data set [4], above 10 µM.

Turning to `N#Cc1ccnc2[nH]cc(C(=O)c3c(F)ccc(NS(=O)(=O)c4cccc(F)c4)c3F)c12` [P-2039, N-[3-(4-Cyano-1H-pyrrolo[2,3-b]pyridine-3-carbonyl)-2,4-difluoro-phenyl]-3-fluoro-benzenesulfonamide], the IC50 in data set [1] was above 10 µM; in data set [2], below 5 µM; in data set [3] it was above 10 µM; in data set [4], above 10 µM.

Turning to `N#Cc1cnc2[nH]cc(C(=O)c3c(F)ccc(NS(=O)(=O)c4ccccc4)c3F)c2c1` [P-2046, N-[3-(5-Cyano-1H-pyrrolo[2,3-b]pyridine-3-carbonyl)-2,4-difluoro-phenyl]-benzenesulfonamide], the 50% inhibitory concentration (IC50) in data set [1] is below 5 µM; in data set [2], below 1 µM; in data set [3] it was above 10 µM; in data set [4], above 10 µM.

Take `N#Cc1cnc2[nH]cc(C(=O)c3cccc(NS(=O)(=O)c4cc(F)ccc4F)c3F)c2c1` [P-2052, N-[3-(5-Cyano-1H-pyrrolo[2,3-b]pyridine-3-carbonyl)-2-fluoro-phenyl]-2,5-difluoro-benzenesulfonamide]: the concentration for half-maximal inhibition (IC50) was above 10 µM in data set [1], below 1 µM in data set [2], above 10 µM in data set [3] and above 10 µM in data set [4].

`N#Cc1cnc2[nH]cc(C(=O)c3cccc(NS(=O)(=O)c4cccc(F)c4)c3F)c2c1` [P-2053, N-[3-(5-Cyano-1H-pyrrolo[2,3-b]pyridine-3-carbonyl)-2-fluoro-phenyl]-3-fluoro-benzenesulfonamide]: the 50% inhibitory concentration (IC50) in data set [1] was above 10 µM; in data set [2], below 1 µM; in data set [3] it was above 10 µM; in data set [4], above 10 µM.

On to `N#Cc1cnc2[nH]cc(C(=O)c3cccc(NS(=O)(=O)c4ccccc4)c3F)c2c1` [P-2056, N-[3-(5-Cyano-1H-pyrrolo[2,3-b]pyridine-3-carbonyl)-2-fluoro-phenyl]-benzenesulfonamide], for which the half-maximal inhibitory concentration (IC50) in data set [1] is below 5 µM; in data set [2] it was below 5 µM; in data set [3], above 10 µM; in data set [4] it was above 10 µM.

`N#Cc1cnc2[nH]cc(C(=O)c3c(F)ccc(NS(=O)(=O)c4cccnc4)c3F)c2c1` [P-2072, Pyridine-3-sulfonic acid [3-(5-cyano-1H-pyrrolo[2,3-b]pyridine-3-carbonyl)-2,4-difluoro-phenyl]-amide]: the IC50 in data set [1] was above 10 µM; in data set [2] it was below 5 µM; in data set [3], above 10 µM; in data set [4], above 10 µM.

In the case of `COc1ccnc2[nH]cc(C(=O)c3c(F)ccc(NS(=O)(=O)c4cccnc4)c3F)c12` [P-2073, Pyridine-3-sulfonic acid [2,4-difluoro-3-(4-methoxy-1H-pyrrolo[2,3-b]pyridine-3-carbonyl)-phenyl]-amide], the concentration for half-maximal inhibition (IC50) is above 10 µM in data set [1], below 10 µM in data set [2], above 10 µM in data set [3] and above 10 µM in data set [4].
